According to patent US6399583B1, “Hybrid anthracyclines from genetically engineered streptomyces galilaeus strains, process for production and uses thereof” (Galilaeus Oy, priority 1998, dated 2002):

Legend:
[1] = system: MES-SA/D×5 uterine sarcoma cells (doxorubicin-resistant, MDR); settings: relative to MES-SA; Harker and Sikic, 1985; cited from earlier work
B16-F0 melanoma = experiment: Cytotoxicity assay, ATP detection, B16-F0; format: cell-based, mouse; settings: Mus musculus, B16F0; B16-F0 cells in vitro; read-out: ED50 B16-F0
Description: (§1) The cytotoxicity tests were performed in 96-well microtiter plates (sterile white plates with clear bottom, Corning Costar Corporation, Cambridge, Mass., USA). The anthracyclines were pipetted into the plates in 10 μl of ethanol, pure ethanol was used for control plates. Daunorubicin and aclarubicin were used as positive controls. When the ethanol had evaporated, the cells were seeded into the plates in 100 μl of appropriate medium. The number of cells seeded per well was 2500 with MES-SA, 3000 with MES-SA/D×5, 3000 with LL/2, 2000 with B16-F0 and B16-F1, 2000 with KLN-205 and 8000 with MLTC-1. The ATP content of the cells was measured after incubating the cells for three days at 37° C. with 5% CO2.
(§2) The growth medium was removed by turning the plates over, and 200 μl of ATP extraction reagent, Somalyze, were added to the wells. The plates were then incubated for 30 minutes at room temperature. The ATP measurement was performed with Luminoskan luminometer (Labsystems Oy, Helsinki, Finland) at 22° C. 20 μl of ATP monitoring reagent containing luciferin and luciferase was dispensed, and an integral measurement of 10 s with 2 s lag time was performed for each well. All reagents used were supplied by Bio-Orbit Oy, Turku, Finland.
(§3) The direct luminometer output (in relative light units, RLUS) was used to calculate the cytotoxic effect. This light signal is directly proportional to the amount of […] in a wide range (determined with Bio-Orbit ATP standard, data not shown). On the other hand, the amount of ATP is directly proportional to the amount of living cells (Kangas et al., 1984). The results are expressed as percentages of the control value of untreated cells. An IC50 value (the drug concentration resulting to an ATP signal of 50% of the untreated control signal) was graphically estimated from the % of control vs. drug concentration plot.
(§4) H075-4a was also tested with several mouse cell lines in vitro (all were purchased from ATCC, Rockville, Md., USA): Lewis lung carcinoma (LL/2) (CRL-1642), B16-F0 melanoma (CRL-6322), B16-F1 melanoma (CRL-6323), KLN-205 lung squamous cell carcinoma (CRL-1453) and MLTC-1 leydig cell tumor (CRL-2065) using daunomycin, aclarubicin and H075-1a (MA 144U1) as references.
(§5) All cells grew as monolayers and were cultured at 37° C. with 5% CO2 according to ATCC standard instructions for each cell line: LL/2 in Dulbecco's modified Eagle's medium with 4.5 g/l glucose and 10% FCS, B16-F0 and B16-F1 in MEM (Eagle) in Earle's BSS with non-essential amino acids and 10% FCS, KLN-205 in MEM (Eagle) in Earle's BSS with non-essential amino acids and 10% FCS, MLTC-1 in RPMI 1640 with 25 mM HEPES and 10% FBS. All media were purchased from Gibco BRL, the serum was Gibco BRL Foetal Bovine Serum. […]

[2] = system: Lewis lung carcinoma (LL/2); experiment: Cytotoxicity assay, ATP detection, LL/2; format: cell-based, mouse; settings: Mus musculus; LL/2 cells in vitro; read-out: ED50 LL/2
Description: as §1, §2, §3, §4, §5

B16-F1 melanoma = experiment: Cytotoxicity assay, ATP detection, B16-F1; format: cell-based, mouse; settings: Mus musculus; B16-F1 cells in vitro; read-out: ED50 B16-F1
Description: as §1, §2, §3, §4, §5

MLTC-1 leydig cell tumor = experiment: Cytotoxicity assay, ATP detection, MLTC-1; format: cell-based, mouse; settings: Mus musculus, Leydig; MLTC-1 cells in vitro; read-out: ED50 MLTC-1
Description: as §1, §2, §3, §4, §5

[3] = system: KLN-205 lung squamous cell carcinoma; experiment: Cytotoxicity assay, ATP detection, KLN-205; format: cell-based, mouse; settings: Mus musculus; KLN-205 cells in vitro; read-out: ED50 KLN-205
Description: as §1, §2, §3, §4, §5

SK-N-MC = experiment: Cytotoxicity assay, ATP detection, SK-N-MC; format: cell-based; settings: SK-N-MC cells in vitro; read-out: ED50 SK-N-MC
[4] = system: L1210 mouse lymphocytic leukemia cells; experiment: Flow cytometry (mode of action), cell cycle phases; format: cell-based; settings: for G1 (%) / G2 (%) / S + M (%) / Cells (1000/ml): L1210 cells, 24 h incubation; for G1 (%): percentage of cells in phase G1; for G2 (%): percentage of cells in phase G2; for S + M (%): percentage of cells in phases S + M; for Cells (1000/ml): starting cell number 46000 cells/ml
Description: L1210 mouse lymphocytic leukemia cells growing in suspension culture were maintained at exponential growth in Dulbecco's modified Eagle's medium with 4.5 g/l glucose and 10% FBS, at 37° C. with 5% CO2. The experiments were started by adding the ethanol-dissolved anthracyclines, in amounts yielding to the appropriate final concentrations, to 25 cm^2 cell culture flasks. After the ethanol had evaporated, 5 ml of an approximately 50 000 cells per ml suspension was added to the flasks. Flow cytometric analysis was made of the original cell suspension and after one, two and three days incubation with or without the drugs.
Cells were prepared for flow cytometric DNA analysis according to the method of Vindelov et al. (1985). The analysis was performed with an Epics XL flow cytometer (Coulter Corporation, Miami, Fla.). Samples were illuminated with a […] air-cooled argon ion laser (488 nm) and the fluorescence of propidium iodide was detected through 620-nm band pass filter. The number of cells in each sample was separately counted by adding an internal calibrator (50 μl of a solution containing 1×10^6 Fluoresbrite beads/ml) to 50 μl of cell suspension.
Based on the flow cytometric studies, the cell cycle phases for the cells studied could be detected. Phase G1 is the stage for RNA and protein synthesis, but not for replication. Transition from phase G1 to phase S means the initiation of replication, and the phase will last until all of the DNA has been replicated. The period from phase S up to mitosis (M) is phase G2.

[5] = system: MES-SA human uterine sarcoma cells; experiment: Cytotoxicity assay, luminescence ATP detection, MES-SA; format: cell-based; settings: Homo sapiens, 72 h, three days incubation, ATP content, highest concentration 10^-5 M, read-out: ED50 (nM) MES-SA
Description: (§6) The cytotoxicities of the new anthracyclines were tested in vitro with two cell lines: human uterine sarcomas MES-SA (CRL-1976; American Type Culture Collection (ATCC), Rockville, Md., USA) and MES-SA/D×5 (CRL-1977; ATCC, Rockville, Md., USA). MES-SA/D×5 has been developed by growing MES-SA cells in increasing concentrations of doxorubicin (Harker and Sikic, 1985).
(§7) Monolayer cultures were grown in McCoy's 5A medium with L-glutamine (Gibco BRL) supplemented with 10% FBS (Foetal Bovine Serum, Gibco BRL). No antibiotics were added. As the resistance is stable for at least 20 passages, the MES-SA/D×5 cells were grown without anthracycline selection (Harker and Sikic, 1985). Cells were maintained at 37° C. with 5% CO2 and subcultured every 3-5 days.
as §1, §2, §3

[6] = system: MES-SA/D×5 uterine sarcoma cells (doxorubicin-resistant, MDR); experiment: Cytotoxicity assay, luminescence ATP detection, MES-SA/D×5; format: cell-based, human; settings: Homo sapiens, 72 h; MES-SA/D×5 cells, three days incubation, ATP content; highest concentration 10^-5 M; read-out: ED50 (nM) MES-SA/D × 5
Description: as §6, §7, §1, §2, §3

COc1cccc2c1C(=O)c1c(O)c3c(c(O)c1C2=O)C[C@@](O)(C(=O)CO)C[C@@H]3O[C@H]1C[C@H](N)[C@H](O)[C@H](C)O1 [doxorubicin]
resistance of MES-SA/D×5 variant to doxorubicin [1]: 100 fold

CC[C@@]1(O)C[C@H](O[C@H]2C[C@H](N(C)C)[C@H](O[C@H]3C[C@H](O)[C@H](O[C@H]4CCC(=O)[C@H](C)O4)[C@H](C)O3)[C@H](C)O2)c2c(cc3c(c2O)C(=O)c2c(O)cccc2C3=O)[C@H]1C(=O)OC [Aclarubicin]
EC50 (B16-F0 melanoma): 3 nM
EC50 [2]: 5 nM
EC50 (B16-F1 melanoma): 4 nM
EC50 (MLTC-1 leydig cell tumor): 70 nM
EC50 [3]: 12 nM
EC50 (SK-N-MC): 9 nM
G1 (%) ([4]; concentration 1 × 10^−8M): 43%
G2 (%) ([4]; concentration 1 × 10^−8M): 14%
S + M (%) ([4]; concentration 1 × 10^−8M): 43%
Cells (1000/ml) ([4]; concentration 1 × 10^−8M): 101 1000/ml
G1 (%) ([4]; concentration 3.3 × 10^−8M): 47%
G2 (%) ([4]; concentration 3.3 × 10^−8M): 29%
S + M (%) ([4]; concentration 3.3 × 10^−8M): 24%
Cells (1000/ml) ([4]; concentration 3.3 × 10^−8M): 78 1000/ml
cell cycle phase in which cells are arrested ([4]; flow cytometric DNA analysis): phase G1
EC50 [5]: 2 nM
EC50 [6]: 12 nM
